The values that follow come from patent US7012128B2, “Interaction between cyclin D1 and steroid receptor co-activators and uses thereof in assays” (TopoTarget UK Limited, priority 1998, dated 2006).

The test system of this test is wild type ER. As to the kind of experiment: ERE-TATA-luciferase transactivation of wild type ER in COS-7 cells. The conditions noted are these: COS-7, wild type ER, presence of ligand. The class given is cell-based. The procedure:
FIG. 1. Mapping of the region of cyclin D1 required for ER-mediated transactivation. • (A) The effect of cyclin D1 deletion mutants on ER activation in the presence of ligand. The cyclin D1 derivatives used in this study are shown in the left panel; right side of Figure represents the relative capacity of the mutants to potentiate ERE-dependent transcription. ER-negative COS-7 cells were transfected with expression vectors for wild type ER (200 ng), cyclin D1 or cyclin D1 mutants (2.5 μg), an internal control §-galactosidase plasmid (0.5 μg) and an ERE-TATA-luciferase reporter (3 μg). The effect on ER transactivation of wild type cyclin D1 was set to 100%. These studies were performed in three separate experiments and expressed as mean values with standard deviation less then […]. The alignment of leucine-rich motif of ER with D-type cyclins are shown on the bottom; the leucine-rich motif in cyclin D1 is indicated as a dark box. The identifiers for the sequences shown are as follows: Cyclin D1 (SEQ ID NO:11), Estrogen receptor (SEQ ID NO:12), the Cyclin D2 (SEQ ID NO:13), and the Cyclin D3 (SEQ ID NO:14). • (B) ER activation by D-type cyclins, cyclin D1 L254/255A point mutant (D1-LALA) and SRC-1 in the presence of ligand. COS-7 cells were transfected with D-type cyclin expression vectors, cyclin D1 Leucine-to-Alanine point mutant (D1-LALA) or SRC-1 expression vector together with wild type ER expression vector, an ERE-TATA-luciferase reporter plasmid and the internal control β-galactosidase construct. Data are expressed as relative luciferase activity compared with basal ERE-luciferase activity of wild type ER and are normalized for transfection efficiencies.
FIG. 3. Role of coactivators in cyclin D1—induced transactivation. • (A) Effect of a dominant negative form of SRC-1 (SRC1-DN) on ER transactivation. SRC1-DN encoding amino acids 1245-1441 of SRC-1 (1, 2.5 and 5 μg) was introduced by transient transfection together with wild type ER (200 ng) and was tested for its ability to modulate ERE-dependent transcription. • (B) Effect of SRCI-DN on SRC-1 and TIF 2 mediated ER transactivation. SRC-1 (3 μg) or TIF-2 (3 μg) were transfected with SRC1-DN (3 μg) and tested for ER transactivation. • (C) Effect of SRC1-DN on cyclin D1-induced transactivation of ER 1-535 mutant. Cyclin D1 was cotransfected with SRC1-DN (1, 2.5, 5 μg) and tested for its effect on an ER harboring a deletion of coactivator binding site in helix 12 (ER 1-535). • (D) Effect of SRC1-DN on cyclin D1-induced transactivation of ER L543/544A mutant. Cyclin D1 and SRC1-DN (1, 2.5, 5 gg) were transfected and tested for the activity of ER helix 12 point mutant (ER L543/544A). The transient transfections (A-C) were performed in COS-7 cells, which were maintained in DMEM with 10 nM ligand. The relative activity was calculated by normalizing to the internal control and was divided by luciferase activity of ER (mutant) in the presence of ligand. The transfection for each set of conditions were done at least in four independent experiments and expressed as average ±SD.
To study how cyclin D1 activates ER, cyclin D1 deletion mutants were tested for their effect on ER-transactivation. COS-7 cells were transfected with cyclin D1 mutants, together with ER and a luciferase reporter gene construct driven by a minimal TATA promoter linked to an estrogen response element (ERE). […] This part of the protein is not involved in CDK interaction and is poorly conserved among the different cyclins. […] To test the relevance of this leucine-rich domain of cyclin D1 in ER activation, a cyclin D1 mutant was constructed in which leucines 254 and 255 were mutated to alanines (D1 L254/255A). This mutation in cyclin D1 is similar to the mutation in ER (ER L543/544A) that interferes with coactivator binding to AF-2 (Danielian et al., 1992). […]

Regarding “Cyclin D1-LALA: cyclin D1 mutant in which leucines 254 and 255 were mutated to alanines; dominant negative”, the ER transactivation capacity result is “virtually unable to activate wild type ER”.
